Results: paper PMC12251544 (2025)

These molecules were tested on FAM-SpA1-1/SpA1-2 (T-2 toxin split aptamer) (DNA, aptamer) CAGCTCAGAAGCTTGATCCTG/TATATCAAGCATAGAGGTG. Conditions: 5 mM K+, 100 mM Na+, 1 mM Mg2+; 50 mM Tris-HCl, 1% methanol, pH 7.4, room temperature; sensor selectivity; concentration tested not stated.

Structure (SMILES) | binding
C[C@H]1CCCC(=O)CCC/C=C/c2cc(O)cc(O)c2C(=O)O1 | no
CCCC[C@@H](C)[C@@H](OC(=O)C[C@@H](CC(=O)O)C(=O)O)[C@H](C[C@@H](C)C[C@H](O)CCCC[C@@H](O)C[C@H](O)[C@H](C)N)OC(=O)C[C@@H](CC(=O)O)C(=O)O | no
C[C@@H]1Cc2c(Cl)cc(C(=O)N[C@@H](Cc3ccccc3)C(=O)O)c(O)c2C(=O)O1 | no
